What all share (format): cell-based
Experiment [1] concerns tyrosine aminotransferase (TAT) mRNA expression in human hepatocytes. Nature of the experiment: Tyrosine Aminotransferase (TAT) mRNA Expression In Vitro Assay in human primary hepatocytes. Particulars: 18 hr, fold change vs DMSO control. As for the experimental part:
Tyrosine Aminotransferase (“TAT”) mRNA Expression In Vitro Assay
The impact of test compounds on hyperglycemic events were assessed by looking at changes in mRNA expression of the gene encoding tyrosine aminotransferase (TAT), which is under direct regulation of the glucocorticoid receptor in human hepatocytes.
Human cryopreserved primary hepatocytes (BioreclamationIVT, M00995-P lot EPB) were plated to 24-well collagen I-coated plates (Becton Dickinson, 354408). Cells were allowed to attach for 4 hr before being challenged with test compounds overnight (18 hr). Cells were harvested and total RNA isolated using RNeasy Plus Mini Kit (Qiagen, 74136) followed by cDNA synthesis using High Capacity cDNA reverse transcription kit (Applied Biosystems, 4368813). Real-time RT PCR was performed on an Applied Biosystems 7500 PCR cycler, using Taqman primers for TAT (Life technologies, Hs00356930_m1) and the reference gene hypoxanthine phosphoribosyltransferase 1 (Life technologies, Hs99999909_m1).
Human cryopreserved primary hepatocytes were transferred in to pre-warmed (37° C.) plating medium (BioreclamationIVT, Z990003) and diluted to 0.7×10^6 viable cells/mL. 500 µL of the cell suspension was plated to each well of a collagen I coated 24-well plate and cells were allowed to sediment and attach at 37° C. for 4 hr. After incubation, the media was gently discarded and exchanged for insulin, glucose, glutamine, pyruvate free media (BioreclamationIVT, S00304), containing compounds of interest, prednisolone at 1 μM, dissolved in DMSO (final DMSO concentration 0.01%), or DMSO alone as control. The plates were then incubated at 37° C. for an additional 18 hr. Media was discarded, and total RNA isolation (Qiagen) and cDNA synthesis (Applied Biosystems) performed according to the manufactures protocol. Real-time RT PCR was carried out using TaqMan reagents (Life technologies) on the 7500 PCR cycler, and Ct-values for TAT gene expression was normalised to the control gene and expressed as fold change compared to DMSO control using the 2^−ΔΔCt method.

Experiment [2] concerns the target T1, human glucocorticoid receptor (GR) (Homo sapiens (Human), UniProt P04150). The experiment in a line: GRE Agonist Assay (ChagoK1 18:7:2 s4/GRE MMTV-GRE-LacZ reporter cell line). The note with it: for Emax at 1 µM: ChaGo-K-1, relative to full agonist effect of dexamethasone, read-out: TA agonist Observed max Effect at 1 μM (%); for TA agonist pEC50: transactivation in agonist mode, ChagoK1 GRE-LacZ reporter cells, 24 hours. The source says:
GRE Agonist Assay A reporter cell line (ChagoK1 18:7:2 s4/GRE) was established by stable transfection of the human bronchogenic carcinoma cell line, ChaGo K1 (ATCC: HTB 168) with a MMTV-GRE-LacZ reporter construct. The generated cell line allows for identification of compounds showing agonist activity at the human glucocorticoid receptor (GR) via induction of LacZ gene expression. Ligand-activated GR binds to the Glucocorticoid Response Element (GRE) in the promoter of the LacZ gene and transcription is initiated. The resulting beta-galactosidase activity is measured through a colour reaction (change in absorbance). Cryo-preserved ChagoK1 18:7:2 s4/GRE cells were suspended in RPMI medium with 10% FBS, 1% NEAA and 1% sodium pyruvate, and seeded as 50000 cells/200 ul/well in 96-well plates and cultured at 37° C. with 5% CO2 and 95% humidity for 24 hours. 1 μl compound was added at different concentrations to the cells and incubated for another 24 hours. […] The reaction was then terminated by addition of 100 μl stop solution (300 mM glycine, 15 mM EDTA, pH 11.3, adjusted with NaOH). […]) Where A=min Y, B=max Y, C=log EC50 and D=Slope factor

Experiment [3] deals with release of TNFα from whole blood stimulated with LPS. The experiment in a line: In Vitro Human Whole Blood: inhibition of TNFα release from whole blood stimulated with LPS. The note with it: LPS 30 μg/mL, 18 hr, read-out: TNFα pIC50 (converted). As for the experimental part:
In Vitro Human Whole Blood
Venous blood from human donors was collected and anti-coagulated with sodium heparin and transferred to a sterile polystyrene round bottomed plate (Corning) at 190 μL per well.
Control wells received 1 μL DMSO only and the final DMSO concentration in all wells was 0.5%.
10 μL was added to each well to give a final LPS concentration of 30 μg/mL. Unstimulated controls received PBS only at 10 μL/well. The samples were, again, gently mixed, and the plates incubated overnight for 18 hr. Following incubation, the blood was centrifuged at 700×g for 5 min, and the plasma removed and transferred to freeze at −20° C. before assay for TNFα release.
TNFα protein levels were determined using an AlphaLISA hTNFa kit (Perkin Elmer) according to the manufacturer's instructions. Briefly, the samples were allowed to return to room temperature and centrifuged at 1500×g for 5 min. Samples were diluted 1/5 (5 μL sample in 20 μL AlphaLISA buffer). At the same time, a standard curve of TNFα was prepared by serial 1/3 dilutions from a stock solution (5000-2 pg/mL). 5 μL sample/standard curve were transferred to a 384-well Optiplate™, and to this was added 20 μL anti-humanTNFa acceptor beads/biotinylated antibody mix. The plate was incubated at room temperature for 60 min. After this incubation, 25 μL streptavidin donor beads were added, and the plate was incubated for a further 60 min in the dark at room temperature. […] TNFα in the samples was determined by extrapolation from the standard curve and expressed as pg/mL.
Percent inhibition was plotted against concentration, and a curve graphed using a 4-parameter curve fit (Xlfit 4.1) to determine the pIC50.

The target of experiment [4] is T1, human glucocorticoid receptor (GR). Nature of the experiment: GRE Antagonist Assay (ChagoK1 18:7:2 s4/GRE reporter cells pre-stimulated with dexamethasone). The note with it: for Emax at 1 µM: ChaGo-K-1, relative to full antagonist effect of Mifepristone (RU486), read-out: TA antagonist Observed max Effect at 1 μM (%); for TA antagonist pIC50: transactivation in antagonist mode, pre-stimulated with dexamethasone 70 nM. The source says:
GRE Antagonist Assay A reporter cell line (ChagoK1 18:7:2 s4/GRE) was established by stable transfection of the human bronchogenic carcinoma celline, ChaGo K1 (ATCC: HTB 168) with a MMTV-GRE-LacZ reporter construct. The generated cell line allows for identification of compounds showing antagonist activity at the human glucocorticoid receptor (GR) via reduction of LacZ gene expression. Dexamethasone-activated GR binds to the Glucocorticoid Response Element (GRE) in the promoter of the LacZ gene and transcription is initiated. Antagonistic properties of compounds are assessed as beta-galactosidase intensity reduction from pre-stimulation with dexamethasone through a colour reaction (change in absorbance). Cryo-preserved ChagoK1 18:7:2 s4/GRE cells were suspended in RPMI medium with 10% FBS, 1% NEAA and 1% sodium pyruvate, and seeded as 50000 cells/200 ul/well in 96-well plates and cultured at 37° C. with 5% CO2 and 95% humidity for 24 hr. […] The reaction was then terminated by addition of 100 μl stop solution (300 mM glycine, 15 mM EDTA, pH 11.3, adjusted with NaOH). The plates were measured at 420 nm for absorbance in a SpectraMax reader (Molecular Device). […]) Where A=min Y, B=max Y, C=log IC50 and D=Slope factor

T1 sequence (P04150 whole entry): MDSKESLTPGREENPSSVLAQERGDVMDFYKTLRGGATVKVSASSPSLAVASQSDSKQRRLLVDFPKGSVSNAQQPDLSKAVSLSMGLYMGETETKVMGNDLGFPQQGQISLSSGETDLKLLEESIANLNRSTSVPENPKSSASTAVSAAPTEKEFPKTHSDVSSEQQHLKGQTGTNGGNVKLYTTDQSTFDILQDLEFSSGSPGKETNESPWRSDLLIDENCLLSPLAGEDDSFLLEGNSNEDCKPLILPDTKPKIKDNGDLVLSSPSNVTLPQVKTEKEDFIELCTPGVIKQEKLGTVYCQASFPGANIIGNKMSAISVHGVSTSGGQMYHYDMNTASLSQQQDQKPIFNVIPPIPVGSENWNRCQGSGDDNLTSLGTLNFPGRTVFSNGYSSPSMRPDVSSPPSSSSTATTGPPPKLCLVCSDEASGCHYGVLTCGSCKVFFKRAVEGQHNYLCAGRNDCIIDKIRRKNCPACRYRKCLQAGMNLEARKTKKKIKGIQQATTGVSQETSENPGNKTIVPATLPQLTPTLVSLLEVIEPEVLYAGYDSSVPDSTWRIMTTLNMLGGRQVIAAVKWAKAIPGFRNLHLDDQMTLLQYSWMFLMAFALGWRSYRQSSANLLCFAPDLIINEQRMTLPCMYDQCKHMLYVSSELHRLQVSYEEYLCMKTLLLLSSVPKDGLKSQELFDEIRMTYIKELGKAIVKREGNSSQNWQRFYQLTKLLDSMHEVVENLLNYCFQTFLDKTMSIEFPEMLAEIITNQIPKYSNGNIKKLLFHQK

With `CC(C)[C@H](NC(=O)C(C)(F)F)[C@H](Oc1ccc2c(cnn2-c2ccc(=O)n(C)c2)c1)c1cc(F)cc(F)c1` [Example 3, N-[(1R,2S)-1-(3,5-difluorophenyl)-3-methyl-1-{[1-(1-methyl-6-oxo-1,6-dihydropyridin-3-yl)-1H-indazol-5-yl]oxy}butan-2-yl]-2,2-difluoropropanamide], the “Fold Change Tyrosine Aminotransferase Gene Expression Relative to Control (1 μM)” value in experiment [1] is listed as 1.5 (1.4-1.55, n = 2). In addition, in experiment [2], the Emax at 1 µM was determined as 44% and the “TA agonist pEC50” value is on record as 8.6. In addition, the IC50 in experiment [3] is 100 nM. In addition, in experiment [4], the Emax at 1 µM was 53% and the “TA antagonist pIC50” value is given as 7.6.

`CC(C)[C@H](NC(=O)C(C)(F)F)[C@H](Oc1ccc2c(cnn2-c2ccc(=O)n(C)c2)c1)c1ccccc1` [Example 1, 2,2-difluoro-N-[(1R,2S)-3-methyl-1-{[1-(1-methyl-6-oxo-1,6-dihydropyridin-3-yl)-1H-indazol-5-yl]oxy}-1-phenylbutan-2-yl]propanamide]: the “Fold Change Tyrosine Aminotransferase Gene Expression Relative to Control (1 μM)” value in experiment [1] is on record as 1.0 (0.8-1.4, n = 8). In experiment [2], the Emax at 1 µM came out at 36% and the “TA agonist pEC50” value was 8.0. The IC50 in experiment [3] is 631 nM. In addition, in experiment [4], the Emax at 1 µM is 56% and the “TA antagonist pIC50” value is given as 6.8.

As for `C[C@]12C=CC(=O)C=C1CC[C@@H]1[C@@H]2[C@@H](O)C[C@@]2(C)[C@H]1CC[C@]2(O)C(=O)CO` [Prednisolone, prednisolone, reference compound], in experiment [1], the “Fold Change Tyrosine Aminotransferase Gene Expression Relative to Control (1 μM)” value is 2.8 (1.3-5.3, n = 10). Besides, the IC50 in experiment [3] was 251 nM.

In the case of `CC(C)[C@H](NC(=O)C(F)(F)F)[C@H](Oc1ccc2c(cnn2-c2ccc(=O)n(C)c2)c1)c1cccc(Cl)c1` [Example 6, N-[(1R,2S)-1-(3-chlorophenyl)-3-methyl-1-{[1-(1-methyl-6-oxo-1,6-dihydropyridin-3-yl)-1H-indazol-5-yl]oxy}butan-2-yl]-2,2,2-trifluoroacetamide], the “Fold Change Tyrosine Aminotransferase Gene Expression Relative to Control (1 μM)” value in experiment [1] was 0.9 (n = 1). Besides, in experiment [2], the Emax at 1 µM is 24% and the “TA agonist pEC50” value is given as 8.6. Further, in experiment [3], the IC50 is 398 nM. Further, in experiment [4], the Emax at 1 µM was determined as 67% and the “TA antagonist pIC50” value came to 7.3.

Consider `CC(C)[C@H](NC(=O)C(C)(F)F)[C@H](Oc1ccc2c(cnn2-c2ccc(=O)n(C)c2)c1)c1ccc(OC(F)F)cc1` [Example 11, N-[(1R,2S)-1-[4-(difluoromethoxy)phenyl]-3-methyl-1-{[1-(1-methyl-6-oxo-1,6-dihydropyridin-3-yl)-1H-indazol-5-yl]oxy}butan-2-yl]-2,2-difluoropropanamide], for which, in experiment [2], the Emax at 1 µM came out at 28% and the “TA agonist pEC50” value is 8.1. In addition, in experiment [4], the Emax at 1 µM was determined as 62% and the “TA antagonist pIC50” value was determined as 6.7.

In the case of `Cc1cc2c(cnn2-c2ccc(=O)n(C)c2)cc1O[C@H](c1ccccc1)[C@@H](NC(=O)C(C)(F)F)C(C)C` [Example 12, 2,2-difluoro-N-[(1R,2S)-3-methyl-1-{[6-methyl-1-(1-methyl-6-oxo-1,6-dihydropyridin-3-yl)-1H-indazol-5-yl]oxy}-1-phenylbutan-2-yl]propanamide], in experiment [2], the Emax at 1 µM turned out to be 46% and the “TA agonist pEC50” value was 8.4. In addition, in experiment [4], the Emax at 1 µM was found to be 48% and the “TA antagonist pIC50” value worked out at 7.1.

With `CC(C)[C@H](NC(=O)C(F)(F)F)[C@H](Oc1ccc2c(cnn2-c2ccc(=O)n(C)c2)c1)c1ccc(OC(F)F)cc1` [Example 16, N-[(1R,2S)-1-[4-(difluoromethoxy)phenyl]-3-methyl-1-{[1-(1-methyl-6-oxo-1,6-dihydropyridin-3-yl)-1H-indazol-5-yl]oxy}butan-2-yl]-2,2,2-trifluoroacetamide], in experiment [2], the Emax at 1 µM is 20% and the “TA agonist pEC50” value is recorded as 8.0. In experiment [4], the Emax at 1 µM was determined as 75% and the “TA antagonist pIC50” value is 6.6.

In the case of `CC(C)[C@H](NC(=O)C(C)(F)F)[C@H](Oc1ccc2c(cnn2-c2ccc(=O)n(C)c2)c1)c1ccc(Cl)cc1` [Example 7, N-[(1R,2S)-1-(4-chlorophenyl)-3-methyl-1-{[1-(1-methyl-6-oxo-1,6-dihydropyridin-3-yl)-1H-indazol-5-yl]oxy}butan-2-yl]-2,2-difluoropropanamide], in experiment [2], the Emax at 1 µM stood at 46% and the “TA agonist pEC50” value stood at 8.1. In addition, in experiment [4], the Emax at 1 µM came out at 54% and the “TA antagonist pIC50” value stood at 7.1.

Turning to `CC(C)[C@H](NC(=O)C(C)(F)F)[C@H](Oc1ccc2c(cnn2-c2ccc(=O)n(C)c2)c1)c1cc(Cl)cc(Cl)c1` [Example 8, N-[(1R,2S)-1-(3,5-dichlorophenyl)-3-methyl-1-{[1-(1-methyl-6-oxo-1,6-dihydropyridin-3-yl)-1H-indazol-5-yl]oxy}butan-2-yl]-2,2-difluoropropanamide], in experiment [2], the Emax at 1 µM was 36% and the “TA agonist pEC50” value was 7.7. Besides, in experiment [4], the Emax at 1 µM was determined as 56% and the “TA antagonist pIC50” value came out at 6.8.

(Values after patent US10196374B2 (AstraZeneca AB, priority 2014, dated 2019).)
